Measured values taken from patent publication US7067633B2, “Targeting cellular entry, cell survival, and pathogenicity by dynein light chain 1/PIN in human cells” (Board of Regents, The University of Texas System, priority 2003, dated 2006).

Tests used:
[1] = system: Pak1; test: Pak1 protein expression by immunoblot; type: cell-based, human
Description: FIGS. 20A–20L—Pak1 activation confers tamoxifen-resistance. FIG. 20A: Pak1 activation promoted ER-transactivation function.

[2] = system: ZR75 cells; test: Cell cycle progression by FACS analysis of serum-starved clones; type: cell-based, human; details: serum-starved stable clones
Method: FIGS. 5A–5C—Requirement of DLC1/PIN and Pak1 interaction in cell proliferation and survival. FIG. 5A: Equal number of cells ZR75R stable cells expressing DLC1/PIN wild type or DLC1/PIN^del88-89 mutant were plated and cell proliferation was determined by trypsinizing and counting cells using a coulter counter. Each colne was plated in triplicate and experiment was repeated twice with similar results. FIG. 5B: Cell cycle progression of DLC1/PIN wild type or mutant clones was analyzed by FACS analysis. […] For example, a smooth nuclear membrane was scored as nonapoptotic, as opposed to membrane blebbing or rupture, which was scored as apoptotic. Nuclei committed to enter mitosis were not scored in either of these groups because they were easily identified for their specific “pulverized” pattern of Lamin A/C staining. Ten randomly selected fields were analyzed for each condition. […]
DLC1/PIN regulation of cell growth and survival. […] After 10 h, apoptosis was quantitated by scoring the integrity of the nuclear membrane in cells expressing both RFP and myc tags to detect DLC/DLC1/PIN and Pak1 respectively (FIG. 5D).

[3] = system: ZR75 cells; test: Tumorigenicity of stably expressing ZR75 cells in nude mice; type: in vivo; details: 5×10^6 cells, no exogenous estradiol
Method: FIGS. 6A–6E—DLC1/PIN overexpression potentiates anchorage-independent growth and promotes tumorigenesis. FIG. 6A: Effect DLC1/PIN expression on anchorage-independent growth of ZR75 cells. The anchorage-independent growth potential of DLC1/PIN-expressing clones was measured by the ability of the cells to form colonies on soft agar. […] Error bars represent standard error of mean. FIG. 6B: Western blot analysis of the expression of DLC1/PIN and Pak1 in lysates from cells derived from MCF10AT model system. […] FIG. 6C: Nude mice were injected with 5×10^6 cells stably expressing pcDNA or wild type DLC1/PIN (clone#2) or mutant DLC1/PIN^del88-89 and tumor growth was measured at weekly intervals. […] Tumor growth was only observed in cells expressing wild type DLC1/PIN but not detected in mutant expressing cells. FIG. 6E: Morphology of tumor and expression of T7-DLC1/PIN in DLC1/PIN-induced tumors as measured by H&E and anti T7 staining respectively.
Cell proliferation, soft-agar, and tumorigenicity assays. […] For xenograft studies, 5×10^6 cells were implanted subcutaneously into mammary fat-pads of 10 nude mice, as previously described (Bagheri et al., 2001), and allowed to grow for 20 weeks; tumor size was then measured. […]

CC/C(=C(\c1ccccc1)c1ccc(OCCN(C)C)cc1)c1ccccc1 [tamoxifen]
Pak1 protein expression ([1]; Ishikawa cells, long-term treatment): increase | levels of Pak1 protein ([1]; MCF-7 cells): no effect

DLC1/PIN^del 88-89: DLC1/PIN mutant in which Ser88 and amino acid 89 were deleted
cell cycle distribution [2]: significant increase in the cells in pre-Go phase | tumorigenic potential [3]: did not exhibited any tumorigenic potential
